According to patent US20220289698A1, “INHIBITORS OF HUMAN ATGL” (Karl-Franzens-Universität Graz, priority 2019, published 2022):
Where two headings read alike, the source gives them in different places.

Experiments:
Type in all cases: biochemical
murine ATGL = molecular target: T1, murine ATGL (Mus musculus, UniProt Q8BJ56); test: TG hydrolase activity, Expi lysates expressing mouse ATGL + CGI-58, radiolabelled triolein
T1 construct: made in house; host or cells: Expi cells (lysate)
T1 sequence (Q8BJ56 1-486): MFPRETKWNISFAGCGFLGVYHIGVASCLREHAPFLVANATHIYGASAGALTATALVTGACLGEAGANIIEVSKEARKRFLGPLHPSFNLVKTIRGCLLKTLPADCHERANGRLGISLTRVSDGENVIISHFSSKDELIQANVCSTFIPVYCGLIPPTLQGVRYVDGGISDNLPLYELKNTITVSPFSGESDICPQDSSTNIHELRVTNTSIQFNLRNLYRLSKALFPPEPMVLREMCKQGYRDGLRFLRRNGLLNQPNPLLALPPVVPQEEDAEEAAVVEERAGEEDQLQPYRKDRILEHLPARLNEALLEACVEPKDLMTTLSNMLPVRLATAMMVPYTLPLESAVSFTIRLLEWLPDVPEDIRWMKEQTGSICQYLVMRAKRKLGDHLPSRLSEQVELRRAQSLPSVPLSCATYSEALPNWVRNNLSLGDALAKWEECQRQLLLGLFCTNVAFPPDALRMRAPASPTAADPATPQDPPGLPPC
Procedure, shortened: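 Lysates of Expi cells overexpressing mouse ATGL, with added recombinant CGI-58, were incubated with inhibitor at 50 μM. Substrate was emulsified radiolabelled triolein with PC/PI in 100 mM potassium phosphate pH 7.0 and 5% FA-free BSA, 1 h at 37° C. Released FA were extracted and counted by scintillation; triplicates, DMSO control.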

mMGL = molecular target: T2, mMGL (Mus musculus, UniProt O35678); test: mMGL off-target inhibition; details: read-out: mMGL off-target inhibition [% inhibition at 100 μM]
T2 construct: made in house; host or cells: E. coli (lysate)
T2 sequence (O35678 1-303): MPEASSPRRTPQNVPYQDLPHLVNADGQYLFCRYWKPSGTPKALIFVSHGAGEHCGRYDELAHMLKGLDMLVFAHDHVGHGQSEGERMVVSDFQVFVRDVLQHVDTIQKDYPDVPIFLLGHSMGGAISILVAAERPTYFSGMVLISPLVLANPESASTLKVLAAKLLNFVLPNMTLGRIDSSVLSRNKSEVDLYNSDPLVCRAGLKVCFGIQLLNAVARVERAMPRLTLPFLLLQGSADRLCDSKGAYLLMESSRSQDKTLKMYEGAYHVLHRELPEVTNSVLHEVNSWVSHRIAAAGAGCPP
Protocol: Lysates from E. coli expressing mMGL were treated with 100 μM Inhibitors and incubated with 1 mM rac-OG substrate for 10 min. Enzyme activity was measured using the Free Glycerol Reagent. Samples measured in triplicates.

hPNPLA9 = molecular target: T3, hPNPLA9 (Homo sapiens, UniProt O60733); test: hPNPLA9 off-target inhibition; details: read-out: hPNPLA9 off-target inhibition [% inhibition at 100 μM]
T3 construct: made in house; host or cells: Expi cells (lysate)
T3 sequence (O60733 1-806): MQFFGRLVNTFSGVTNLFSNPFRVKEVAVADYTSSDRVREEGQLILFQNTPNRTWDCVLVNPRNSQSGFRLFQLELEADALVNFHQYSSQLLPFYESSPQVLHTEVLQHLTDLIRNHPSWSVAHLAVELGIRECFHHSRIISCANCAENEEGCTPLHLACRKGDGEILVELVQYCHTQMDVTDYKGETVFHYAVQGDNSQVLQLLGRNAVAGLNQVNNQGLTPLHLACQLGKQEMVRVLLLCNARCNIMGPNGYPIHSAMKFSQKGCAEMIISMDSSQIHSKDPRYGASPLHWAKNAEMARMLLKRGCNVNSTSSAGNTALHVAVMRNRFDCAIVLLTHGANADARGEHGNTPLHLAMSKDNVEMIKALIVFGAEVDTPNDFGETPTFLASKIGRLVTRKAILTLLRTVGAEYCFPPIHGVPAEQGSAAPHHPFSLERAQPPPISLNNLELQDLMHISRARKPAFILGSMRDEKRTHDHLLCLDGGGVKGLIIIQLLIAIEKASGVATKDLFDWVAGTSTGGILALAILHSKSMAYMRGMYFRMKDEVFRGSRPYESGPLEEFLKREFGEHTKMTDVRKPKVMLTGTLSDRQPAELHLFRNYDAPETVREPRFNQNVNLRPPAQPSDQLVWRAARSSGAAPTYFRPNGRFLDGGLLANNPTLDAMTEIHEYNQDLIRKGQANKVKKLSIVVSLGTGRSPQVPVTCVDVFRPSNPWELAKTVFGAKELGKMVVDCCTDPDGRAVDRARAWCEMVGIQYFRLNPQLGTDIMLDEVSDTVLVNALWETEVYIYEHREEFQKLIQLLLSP
Protocol: Expi lysates expressing hPNPLA9 were treated with 100 μM Inhibitors and incubated with 1 mM C8 monoacylglycerol substrate (containing 5 mM CHAPS, 50 mM NaPh buffer ph7.4, 0.15 M NaCl) for 40 min. Glycerol release was determined via Free glycerol reagent (Sigma Aldrich). Samples measured in triplicates, […]

goat ATGL = test: Goat ATGL inhibition, Expi lysates + CGI-58
Protocol: Lysates from Expi cells overexpressing ATGL from goat (Capra hircus) were incubated with recombinant purified ATGL co-activator CGI-58 and ATGL inhibitors at 50 μM. Subsequently, substrate containing radiolabeled triolein was added and liberated FA were extracted and quantified by liquid scintillation. Inhibitors were dissolved in DMSO which was used as control. Samples were measured in triplicates.

[1] = 50 μM compound, Example 237, read-out: Inhibition of murine ATGL at 50 μM − mean [%]
[2] = 50 μM, Example 238, read-out: % Inhibition of murine ATGL at 50 μM
[3] = 50 μM, overview table, read-out: mouse ATGL inhibition [% inhibition at 50 μM]

SMILES | inhibition at 50 µM (murine ATGL; [1]) [%] | inhibition at 100 µM (mMGL) [%] | inhibition at 100 µM (hPNPLA9) [%] | goat ATGL inhibition [% inhibition at 50 μM (goat ATGL) [%] | inhibition at 50 µM (murine ATGL; [2]) [%] | inhibition at 50 µM (murine ATGL; [3]) [%] | inhibition at 25 µM (murine ATGL; Example 238) [%]
CCOc1ccc(-c2cc(OC)cc(C(=O)OC(C)C)n2)cc1 [Example 35] | 0 | 0 | 0 | – | – | – | –
CCOc1ccc(-c2nc(C(=O)OCc3cccs3)cs2)cc1 [Example 152, Thiophen-2-ylmethyl 2-(4-ethoxyphenyl)thiazole-4-carboxylate] | 74 | – | 0 | 0 | – | – | –
CCOc1ccc(-c2cccc(C(=O)OCc3cccs3)n2)cc1 [Example 189, Thiophen-2-ylmethyl 6-(4-ethoxyphenyl)picolinate] | – | 0 | 0 | 50 | 87 | – | –
CCOc1ccc(-c2cccc(C(=O)OCc3ccco3)n2)cc1 [Example 190, Furan-2-ylmethyl 6-(4-ethoxyphenyl)picolinate] | – | 0 | 0 | 25 | 80 | – | –
COc1cc(C(=O)OC(C)C)nc(-c2ccc(OC(C)C)cc2)c1 [Example 201, Isopropyl 6-(4-isopropoxyphenyl)-4-methoxypicolinate] | – | 0 | 0 | 0 | 45 | 0 | –
CC#CCOC(=O)c1csc(-c2ccc(OCC)cc2)n1 [Example 209, But-2-yn-1-yl 2-(4-ethoxyphenyl)thiazole-4-carboxylate] | – | 0 | 0 | 25 | 76 | – | –
C#C[C@H](C)OC(=O)c1csc(-c2ccc(OCC)cc2)n1 [Example 210, (S)-But-3-yn-2-yl 2-(4-ethoxyphenyl)thiazole-4-carboxylate] | – | 0 | 0 | 20 | 60 | – | 47
C#C[C@@H](C)OC(=O)c1csc(-c2ccc(OCC)cc2)n1 [Example 211, (R)-But-3-yn-2-yl 2-(4-ethoxyphenyl)thiazole-4-carboxylate] | – | 0 | 0 | 30 | 82 | 60 | 73
CCCCOC(=O)c1csc(-c2ccc(OCC)cc2)n1 [Example 212, Butyl 2-(4-ethoxyphenyl)thiazole-4-carboxylate] | – | 0 | 0 | 20 | 56 | – | 47
CCOc1ccc(-c2nc(C(=O)OCc3ccsc3)cs2)cc1 [Example 215, Thiophen-3-ylmethyl 2-(4-ethoxyphenyl)thiazole-4-carboxylate] | – | 0 | 0 | 50 | 81 | 60 | 71
CCOc1ccc(-c2nc(C(=O)OCc3ccoc3)cs2)cc1 [Example 216, Furan-3-ylmethyl 2-(4-ethoxyphenyl)thiazole-4-carboxylate] | – | 0 | 0 | 50 | 81 | – | 70
CCOc1ccc(-c2nc(C(=O)OCc3ccc(Cl)s3)cs2)cc1 [Example 223, (5-Chlorothiophen-2-yl)methyl 2-(4-ethoxyphenyl)thiazole-4-carboxylate] | – | 0 | 0 | 40 | 71 | – | –
CCOc1ccc(-c2nc(C(=O)OCc3ccc(Br)s3)cs2)cc1 [Example 224, (5-Bromothiophen-2-yl)methyl 2-(4-ethoxyphenyl)thiazole-4-carboxylate] | – | 70 | 0 | 40 | 68 | – | –
